This is an account of results in ChEMBL document CHEMBL1145663, “Studies on iridoid-related compounds, II. The structure and antimicrobial activity of aglucones of galioside and gardenoside” (1983).

≈ marks a conversion by molar mass, not a printed value. Calls of active or inactive are those of the source. The rule behind the calls is not given here.

For assay [1], the system named is Staphylococcus aureus. The assay is described as follows: Antimicrobial activity against Staphylococcus aureus after 20 hrs by agar dilution method. In kind it is functional. In general terms: In agar dilution the substance is mixed into plates at graded concentrations.
Assay [2] deals with Klebsiella pneumoniae. The assay can be described thus: Antimicrobial activity against Klebsiella pneumoniae after 20 hrs by agar dilution method. It counts as functional.

Turning to `COC(=O)C1=CO[C@@H](O[C@@H]2O[C@H](CO)[C@@H](O)[C@H](O)[C@H]2O)[C@H]2[C@@H]1C=C[C@]2(O)CO`, the outcome in assay [1] and in assay [2] was Active.
As usually defined, the MIC is the lowest concentration found to suppress growth. In the case of `COC(=O)C1=CO[C@@H](O)[C@H]2[C@@H]1C=C[C@]2(O)CO`, the MIC in assay [1] is 125 µg/mL (≈ 516 µM); in assay [2], 1000 µg/mL (≈ 4130 µM).
